From US20240043404A1 (AbbVie Inc., priority 2009, published 2024)
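Further: acute lymphoblastic leukemia line RS4,11, EC50 derived from percentage of viable cells after treatment relative to untreated controls, cell killing taken as a measure of Bcl-2 inhibition.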

What follows are molecules tested on RS4;11 cells (assay: RS4;11 cell viability assay (CellTiter Glo)). Settings: Homo sapiens, RS4-11, 48 h, 50,000 cells per well, 10% human serum, 48 hours; read-out: RS4; 11 EC50 Values.
Format: cell-based, human
Method: The acute lymphoblastic leukemia (ALL) cell line RS4;11 was used as the primary human cell line to assess the cellular activity of Bcl-2 selective agents in vitro and their efficacy in vivo.
Cell cytotoxicity EC50 values were assessed using CellTiter Glo (Promega) according to the manufacturer's recommendations. The EC50 values were determined as a percentage of viable cells following treatment compared to the untreated control cells.
`CC1(C)CCC(CN2CCN(c3ccc(C(=O)NS(=O)(=O)c4ccc(NC5CCN(C6COC6)CC5)c([N+](=O)[O-])c4)c(Oc4cnc5[nH]ccc5c4)c3)CC2)=C(c2ccc(Cl)cc2)C1` [Example 139, 4-(4-{[2-(4-chlorophenyl)-4,4-dimethylcyclohex-1-en-1-yl]methyl}piperazin-1-yl)-N-({3-nitro-4-[(1-oxetan-3-ylpiperidin-4-yl)amino]phenyl}sulfonyl)-2-(1H-pyrrolo[2,3-b]pyridin-5-yloxy)benzamide] showed an EC50 of 16.8 nM.
Work on `CC1(C)CCC(CN2CCN(c3ccc(C(=O)NS(=O)(=O)c4ccc(NC5CCN(C6CCC6)CC5)c([N+](=O)[O-])c4)c(Oc4cnc5[nH]ccc5c4)c3)CC2)=C(c2ccc(Cl)cc2)C1` [Example 140, 4-(4-{[2-(4-chlorophenyl)-4,4-dimethylcyclohex-1-en-1-yl]methyl}piperazin-1-yl)-N-({4-[(1-cyclobutylpiperidin-4-yl)amino]-3-nitrophenyl}sulfonyl)-2-(1H-pyrrolo[2,3-b]pyridin-5-yloxy)benzamide] yielded an EC50 of 12.8 nM.
For `CC1(C)CCC(CN2CCN(c3ccc(C(=O)NS(=O)(=O)c4ccc(NC5CCN(C6CCOC(C)(C)C6)CC5)c([N+](=O)[O-])c4)c(Oc4cnc5[nH]ccc5c4)c3)CC2)=C(c2ccc(Cl)cc2)C1` (stereo not shown) [Example 141, 4-(4-{[2-(4-chlorophenyl)-4,4-dimethylcyclohex-1-en-1-yl]methyl}piperazin-1-yl)-N-[(4-{[1-(2,2-dimethyltetrahydro-2H-pyran-4-yl)piperidin-4-yl]amino}-3-nitrophenyl)sulfonyl]-2-(1H-pyrrolo[2,3-b]pyridin-5-yloxy)benzamide], the EC50 was 20.4 nM.
`CC1(C)CCC(CN2CCN(c3ccc(C(=O)NS(=O)(=O)c4ccc(N[C@H]5CCN(C6CC6)C5)c([N+](=O)[O-])c4)c(Oc4cnc5[nH]ccc5c4)c3)CC2)=C(c2ccc(Cl)cc2)C1` [Example 142, 4-(4-{[2-(4-chlorophenyl)-4,4-dimethylcyclohex-1-en-1-yl]methyl}piperazin-1-yl)-N-[(4-{[(3S)-1-cyclopropylpyrrolidin-3-yl]amino}-3-nitrophenyl)sulfonyl]-2-(1H-pyrrolo[2,3-b]pyridin-5-yloxy)benzamide] gave an EC50 of 345 nM.
Molecule `CC1(C)CCC(CN2CCN(c3ccc(C(=O)NS(=O)(=O)c4ccc(NC5CCN(C6CCOC6)CC5)c([N+](=O)[O-])c4)c(Oc4cnc5[nH]ccc5c4)c3)CC2)=C(c2ccc(Cl)cc2)C1` (stereo not shown) [Example 143, 4-(4-{[2-(4-chlorophenyl)-4,4-dimethylcyclohex-1-en-1-yl]methyl}piperazin-1-yl)-N-({3-nitro-4-[(1-tetrahydrofuran-3-ylpiperidin-4-yl)amino]phenyl}sulfonyl)-2-(1H-pyrrolo[2,3-b]pyridin-5-yloxy)benzamide] has an EC50 of 19.1 nM.
In the case of `CC1(C)CCC(CN2CCN(c3ccc(C(=O)NS(=O)(=O)c4ccc(N[C@@H]5CCN(C6CC6)C5)c([N+](=O)[O-])c4)c(Oc4cnc5[nH]ccc5c4)c3)CC2)=C(c2ccc(Cl)cc2)C1` [Example 144, 4-(4-{[2-(4-chlorophenyl)-4,4-dimethylcyclohex-1-en-1-yl]methyl}piperazin-1-yl)-N-[(4-{[(3R)-1-cyclopropylpyrrolidin-3-yl]amino}-3-nitrophenyl)sulfonyl]-2-(1H-pyrrolo[2,3-b]pyridin-5-yloxy)benzamide], the EC50 is reported as 21.2 nM.
`CC1(C)CCC(CN2CCN(c3ccc(C(=O)NS(=O)(=O)c4ccc(NC[C@@H]5CCN(C6CCOCC6)C5)c([N+](=O)[O-])c4)c(Oc4cnc5[nH]ccc5c4)c3)CC2)=C(c2ccc(Cl)cc2)C1` [Example 145, 4-(4-{[2-(4-chlorophenyl)-4,4-dimethylcyclohex-1-en-1-yl]methyl}piperazin-1-yl)-N-{[3-nitro-4-({[(3S)-1-tetrahydro-2H-pyran-4-ylpyrrolidin-3-yl]methyl}amino)phenyl]sulfonyl}-2-(1H-pyrrolo[2,3-b]pyridin-5-yloxy)benzamide] showed an EC50 of 4 nM.
`CC(C)(CO)CNc1ccc(S(=O)(=O)NC(=O)c2ccc(N3CCN(CC4=C(c5ccc(Cl)cc5)CC(C)(C)CC4)CC3)cc2Oc2cnc3[nH]ccc3c2)cc1[N+](=O)[O-]` [Example 146, 4-(4-{[2-(4-chlorophenyl)-4,4-dimethylcyclohex-1-en-1-yl]methyl}piperazin-1-yl)-N-({4-[(3-hydroxy-2,2-dimethylpropyl)amino]-3-nitrophenyl}sulfonyl)-2-(1H-pyrrolo[2,3-b]pyridin-5-yloxy)benzamide] showed an EC50 of 19.2 nM.
`CC1(C)CCC(CN2CCN(c3ccc(C(=O)NS(=O)(=O)c4ccc(NCC5CCCN(S(C)(=O)=O)C5)c([N+](=O)[O-])c4)c(Oc4cnc5[nH]ccc5c4)c3)CC2)=C(c2ccc(Cl)cc2)C1` (stereo not shown) [Example 147, 4-(4-{[2-(4-chlorophenyl)-4,4-dimethylcyclohex-1-en-1-yl]methyl}piperazin-1-yl)-N-{[4-({[1-(methylsulfonyl)piperidin-3-yl]methyl}amino)-3-nitrophenyl]sulfonyl}-2-(1H-pyrrolo[2,3-b]pyridin-5-yloxy)benzamide] showed an EC50 of 26.2 nM.
Work on `CC(=O)N1CCCC(CNc2ccc(S(=O)(=O)NC(=O)c3ccc(N4CCN(CC5=C(c6ccc(Cl)cc6)CC(C)(C)CC5)CC4)cc3Oc3cnc4[nH]ccc4c3)cc2[N+](=O)[O-])C1` (stereo not shown) [Example 148, N-[(4-{[(1-acetylpiperidin-3-yl)methyl]amino}-3-nitrophenyl)sulfonyl]-4-(4-{[2-(4-chlorophenyl)-4,4-dimethylcyclohex-1-en-1-yl]methyl}piperazin-1-yl)-2-(1H-pyrrolo[2,3-b]pyridin-5-yloxy)benzamide] yielded an EC50 of 9.38 nM.
With `CC1(C)CCC(CN2CCN(c3ccc(C(=O)NS(=O)(=O)c4ccc(N[C@@H]5CCN(S(C)(=O)=O)C5)c([N+](=O)[O-])c4)c(Oc4cnc5[nH]ccc5c4)c3)CC2)=C(c2ccc(Cl)cc2)C1` [Example 149, 4-(4-{[2-(4-chlorophenyl)-4,4-dimethylcyclohex-1-en-1-yl]methyl}piperazin-1-yl)-N-[(4-{[(3R)-1-(methylsulfonyl)pyrrolidin-3-yl]amino}-3-nitrophenyl)sulfonyl]-2-(1H-pyrrolo[2,3-b]pyridin-5-yloxy)benzamide] the EC50 was 13.5 nM.
Molecule `CC1(C)CCCC(CN2CCN(c3ccc(C(=O)NS(=O)(=O)c4ccc(NCC5CCOCC5)c([N+](=O)[O-])c4)c(Oc4cnc5[nH]ccc5c4)c3)CC2)=C1c1ccc(Cl)cc1` [Example 150, 4-(4-{[2-(4-chlorophenyl)-3,3-dimethylcyclohex-1-en-1-yl]methyl}piperazin-1-yl)-N-({3-nitro-4-[(tetrahydro-2H-pyran-4-ylmethyl)amino]phenyl}sulfonyl)-2-(1H-pyrrolo[2,3-b]pyridin-5-yloxy)benzamide] has an EC50 of 51 nM.
For `CC1(C)CCC(CN2CCN(c3ccc(C(=O)NS(=O)(=O)c4ccc(NC5CN(C(CF)CF)C5)c([N+](=O)[O-])c4)c(Oc4cnc5[nH]ccc5c4)c3)CC2)=C(c2ccc(Cl)cc2)C1` [Example 151, 4-(4-{[2-(4-chlorophenyl)-4,4-dimethylcyclohex-1-en-1-yl]methyl}piperazin-1-yl)-N-{[4-({1-[2-fluoro-1-(fluoromethyl)ethyl]azetidin-3-yl}amino)-3-nitrophenyl]sulfonyl}-2-(1H-pyrrolo[2,3-b]pyridin-5-yloxy)benzamide], the EC50 was 33.7 nM.
For `CC1(C)CCC(CN2CCN(c3ccc(C(=O)NS(=O)(=O)c4ccc(NCC5CCN(S(C)(=O)=O)C5)c([N+](=O)[O-])c4)c(Oc4cnc5[nH]ccc5c4)c3)CC2)=C(c2ccc(Cl)cc2)C1` (stereo not shown) [Example 152, 4-(4-{[2-(4-chlorophenyl)-4,4-dimethylcyclohex-1-en-1-yl]methyl}piperazin-1-yl)-N-{[4-({[1-(methylsulfonyl)pyrrolidin-3-yl]methyl}amino)-3-nitrophenyl]sulfonyl}-2-(1H-pyrrolo[2,3-b]pyridin-5-yloxy)benzamide], the EC50 was 20.4 nM.
Molecule `CC(=O)N1CCC(CNc2ccc(S(=O)(=O)NC(=O)c3ccc(N4CCN(CC5=C(c6ccc(Cl)cc6)CC(C)(C)CC5)CC4)cc3Oc3cnc4[nH]ccc4c3)cc2[N+](=O)[O-])C1` (stereo not shown) [Example 153, N-[(4-{[(1-acetylpyrrolidin-3-yl)methyl]amino}-3-nitrophenyl)sulfonyl]-4-(4-{[2-(4-chlorophenyl)-4,4-dimethylcyclohex-1-en-1-yl]methyl}piperazin-1-yl)-2-(1H-pyrrolo[2,3-b]pyridin-5-yloxy)benzamide] has an EC50 of 17.2 nM.
`CC(=O)N1CC[C@@H](Nc2ccc(S(=O)(=O)NC(=O)c3ccc(N4CCN(CC5=C(c6ccc(Cl)cc6)CC(C)(C)CC5)CC4)cc3Oc3cnc4[nH]ccc4c3)cc2[N+](=O)[O-])C1` [Example 154, N-[(4-{[(3R)-1-acetylpyrrolidin-3-yl]amino}-3-nitrophenyl)sulfonyl]-4-(4-{[2-(4-chlorophenyl)-4,4-dimethylcyclohex-1-en-1-yl]methyl}piperazin-1-yl)-2-(1H-pyrrolo[2,3-b]pyridin-5-yloxy)benzamide] was tested, and the EC50 was 26.5 nM.
`COCC(C)(C)CNc1ccc(S(=O)(=O)NC(=O)c2ccc(N3CCN(CC4=C(c5ccc(Cl)cc5)CC(C)(C)CC4)CC3)cc2Oc2cnc3[nH]ccc3c2)cc1[N+](=O)[O-]` [Example 155, 4-(4-{[2-(4-chlorophenyl)-4,4-dimethylcyclohex-1-en-1-yl]methyl}piperazin-1-yl)-N-({4-[(3-methoxy-2,2-dimethylpropyl)amino]-3-nitrophenyl}sulfonyl)-2-(1H-pyrrolo[2,3-b]pyridin-5-yloxy)benzamide] gave an EC50 of 594 nM.
`CC1(C)CCC(CN2CCN(c3ccc(C(=O)NS(=O)(=O)c4ccc(NC[C@@H]5CC[C@@H](O)C5)c([N+](=O)[O-])c4)c(Oc4cnc5[nH]ccc5c4)c3)CC2)=C(c2ccc(Cl)cc2)C1` [Example 156, 4-(4-{[2-(4-chlorophenyl)-4,4-dimethylcyclohex-1-en-1-yl]methyl}piperazin-1-yl)-N-{[4-({[(1R,3R)-3-hydroxycyclopentyl]methyl}amino)-3-nitrophenyl]sulfonyl}-2-(1H-pyrrolo[2,3-b]pyridin-5-yloxy)benzamide] showed an EC50 of 8.05 nM.
In the case of `CC1(C)CCC(CN2CCN(c3ccc(C(=O)NS(=O)(=O)c4ccc(NC[C@H]5CC[C@H](O)C5)c([N+](=O)[O-])c4)c(Oc4cnc5[nH]ccc5c4)c3)CC2)=C(c2ccc(Cl)cc2)C1` [Example 157, 4-(4-{[2-(4-chlorophenyl)-4,4-dimethylcyclohex-1-en-1-yl]methyl}piperazin-1-yl)-N-{[4-({[(1S,3S)-3-hydroxycyclopentyl]methyl}amino)-3-nitrophenyl]sulfonyl}-2-(1H-pyrrolo[2,3-b]pyridin-5-yloxy)benzamide], the EC50 is reported as 10.9 nM.
